Like-named read-outs stand apart in the source and are kept apart here. Each block holds one molecule with its values, some of them ahead of it.
Assays:
[1] = system: PECPS; assay: Standard PECPS enzyme reaction, acceptance of starter-CoA; assay type: biochemical, Aquilaria sinensis; settings: condensation with 4-hydroxyphenylpropionyl-β-diketide acid
Description: The standard reaction mixture contained 26 nmol of starter-CoA (4-hydroxyphenylpropionyl-CoA/benzoyl-CoA/phenylpropionyl-CoA/2-hydroxybenzoyl-CoA/3-hydroxybenzoyl-CoA/4-hydroxybenzoyl-CoA), 29 nmol of malonyl-CoA/benzoyl-β-diketide acid/4-hydroxyphenylpropionyl-β-diketide acid (note: before β-diketide acids were added to the reaction buffer, they were first dissolved in dimethyl sulfoxide to a final concentration of 2.9 mM), and 0.4 nmol of the purified recombinant enzyme, in 100 mM KPB (pH 7.5) for a final volume of 500 μL. Incubations were performed at 37 °C for 12 h and terminated by the addition of 20 μL of 20% HCl. The reaction solution was then extracted three times with 800 μL of ethyl acetate. The organic layers were combined, evaporated to dryness with nitrogen, and dissolved in 50 μL of MeOH for LCMS-IT-TOF (Shimadzu, Japan) analysis. The HPLC was equipped with an Agilent Eclipse XDB C18 column (250 × 4.6 mm I.D., 5 μm) and eluted at a flow rate of 1.0 mL/min. For the standard assay, gradient elution was performed with H2O and acetonitrile: 0–10 min, 30% acetonitrile; 10–20 min, 30–60% acetonitrile; 20–25 min, 60–70% acetonitrile; 25–30 min, 70–80% acetonitrile; 30–35 min, 80–100% acetonitrile; 35–40 min, 100% acetonitrile.

[2] = system: wild type N. benthamiana leaves; assay: Infiltration of C6-C5-C6 substrates into wild type N. benthamiana leaves, LC-MS; assay type: in vivo, Nicotiana benthamiana
[3] = molecular target: 2-(2-phenylethyl)chromone precursor synthase (PECPS), wild type, recombinant (Aquilaria sinensis); assay: SEC; purified recombinant PECPS; approximately 86 kDa against a calculated 43 kDa for the monomer (Supplementary Fig. 4b); column and buffer of this run not told
[4] = system: PECPS protein expression in A. sinensis calli; settings: 150 mM NaCl-treated calli
Description: GAPDH was used as internal reference. d Western blot quantification of the relative expression levels of PECPS by ImageJ and normalization to the protein levels of GAPDH. Data represent the mean ± SD (n = 3). Statistical analysis was performed with unpaired two-tailed Student’s t-tests. Significance is shown with asterisks: ****p < 0.0001, ***p < 0.001, **p < 0.01. Exact p-values and source data are provided in the source data file. Total protein was extracted from 100 mg of calli using Plant Total Protein Extraction Reagent (Invent, USA) according to the manufacturer’s instructions. The protein expression levels of PECPS were analyzed by Western blotting with an anti-PECPS antibody prepared in rabbits.

[5] = system: PECPS expression in A. sinensis calli; settings: NaCl-treated calli
Description: Considering that PECs contain a phenylethyl moiety, 4-hydroxyphenylpropionyl-CoA, rather than p-coumaroyl-CoA, was deliberately selected as the starter substrate for the reaction with malonyl-CoA, a canonical chain extender for PKSs, and the recombinant PECPS. […] The construction of a C6–C5–C6 scaffold by coincubation of benzoyl-CoA, malonyl-CoA, and 4-hydroxyphenylpropionyl-CoA was attempted.

[6] = molecular target: wild type PECPS (Aquilaria sinensis, UniProt A0A385MEG6); assay: ITC binding to wild type PECPS; settings: mean ± SD (n = 3)
Chain of wild type PECPS (A0A385MEG6 entry or part of it): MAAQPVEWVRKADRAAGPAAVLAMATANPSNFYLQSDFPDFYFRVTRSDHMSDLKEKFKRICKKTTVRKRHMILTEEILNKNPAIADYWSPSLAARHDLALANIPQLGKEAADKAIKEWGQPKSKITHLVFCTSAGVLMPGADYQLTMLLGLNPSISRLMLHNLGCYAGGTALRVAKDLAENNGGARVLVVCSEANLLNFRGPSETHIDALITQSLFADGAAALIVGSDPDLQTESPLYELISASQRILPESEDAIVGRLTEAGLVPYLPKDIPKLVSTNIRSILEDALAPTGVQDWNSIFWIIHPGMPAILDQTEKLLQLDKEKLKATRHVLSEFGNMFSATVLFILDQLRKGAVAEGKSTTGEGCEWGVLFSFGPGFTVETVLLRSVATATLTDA
Description: (§1) ITC measurements of affinity (KD), stoichiometry (n) and apparent enthalpy change (ΔH°) were obtained using a Nano LV ITC calorimeter (TA Instruments). Samples for cell and injectant solutions were prepared in the same buffer (100 mM KPB, pH 7.5). All experiments were conducted at 37 °C with a stirring speed of 240 rpm and a sequence of 20 injections of 2.5 μL and 380 s delays between succeeding injections. The sample cell was filled with 47–85 μM protein solution (300 μl), while 1.09 mM 4-hydroxyphenylpropionyl-CoA (or 1.15 mM benzoyl-CoA) solution was placed in the syringe. The resulting data were processed with the standard NanoAnalyze software package (version 3.11.0), assuming the model of one type of binding site with an apparent stoichiometry close to 1:1. The first injection resulting in a heat change was disregarded in the later analysis. Titration experiments were performed in triplicate to show reproducibility. Control experiments confirmed that the heats of dilution caused by the reactant being titrated into buffer and the buffer into protein solution were negligible. The heats of dilution for the sample in the cell were subtracted from the final trace before integration with respect to time. The thermodynamic data obtained from the traces were averaged across three runs, and a standard deviation was calculated. Representative ITC thermograms and isotherm plots for experiments can be found in Supplementary Fig. 35.

[7] = Non-enzymatic conversion of oxidoagarochromone C in aqueous methanol, HPLC; assay type: physicochemical; settings: methanol aqueous solution, room temperature
Description: Figure 19. […]
HPLC chromatograms were recorded on an Agilent ZORBAXSB C18 column (250 mm × 4.6 mm, I.D., 5 μm) eluted with H2O and acetonitrile in an isocratic mode (0–30 min, 30% acetonitrile; flow rate 1.0 mL/min). Oxidoagarochromone C (S) was dissolved in 50% aqueous methanol and kept at room temperature. ATC-type PECs (1–5) converted from the substrate (S) via the non-enzymatic opening of the epoxy rings were readily apparent at 12 h and 36 h. Given that the structures of compounds 1-5 were tentatively identified by HRESI MS, the presence of methyl groups in compounds 2 and 5 is also possible on other hydroxyl groups formed by the opening of the epoxy rings, and the structures of 3 and 4 may be […]

[8] = system: NaCl-stressed A. sinensis cells; assay: Substrate feeding to NaCl-stressed A. sinensis suspension cells, LC-MS; assay type: cell-based, Aquilaria sinensis; settings: NaCl-stressed A. sinensis cells fed with substrate
Description: To verify the aforementioned hypothesis that diarylpentanoid is the common precursor of PECs, substrate-feeding experiments were performed. First, a putative innate-substrate, 5-(4-hydroxyphenyl)-1-phenylpentane-1,3-dione (2), was fed to NaCl-stressed A. sinensis cells, and its metabolites were carefully analyzed by LC–MS. […] Next, the fluorine-containing nonphysiological substrate 5-(4-F-phenyl)-1-phenylpentane-1,3-dione (F-2) was fed to NaCl-stressed A. sinensis cells. As a result, 10 fluorinated PECs (C01–C10) were successfully obtained by LC–MS guided separation and purification (Fig. 2b and Supplementary Fig. 8), and the structures of C01–C06 were unequivocally determined by extensive spectroscopic techniques, including ^1H-NMR, ^13C-NMR and HRESI-MS (Supplementary Figs. 9–14 and Supplementary Tables 2 and 3). Unfortunately, attempts to elucidate the structures of compounds C07–C10 by NMR techniques were complicated by their small yields. […]
Robustly growing suspension cells (200 mL × 10) were treated with NaCl (final concentration 150 mM) and immediately fed the fluorine-labeled substrate F-2 (20 mg × 10). […] Fluorinated PECs could be detected from the crude residue by LC–MS (Supplementary Fig. 8). […]

[9] = molecular target: PECPS A210E (Aquilaria sinensis, UniProt A0A385MEG6, A210E); assay: ITC binding to PECPS A210E mutant
Chain of PECPS A210E (A0A385MEG6 entry or part of it A210E): as the sequence (A0A385MEG6 entry or part of it) above, with A210E counted along it
Description: as §1
(§2) Plasmids expressing the PECPS mutants (A210E, F340W, N199L, and N199F) were generated by the Fast Mutagenesis System ([…] BIOTECH) according to the manufacturer’s instructions, using designed primers (Supplementary Table 5). The mutant enzymes were expressed, extracted, and purified by the same procedure as that for the wild type PECPS, and used in the enzyme assay and for crystallization.

[10] = molecular target: PECPS F340W (Aquilaria sinensis, UniProt A0A385MEG6, F340W); assay: ITC binding to PECPS F340W mutant
Chain of PECPS F340W (A0A385MEG6 entry or part of it F340W): as the sequence (A0A385MEG6 entry or part of it) above, with F340W counted along it
Description: as §1, §2

[11] = molecular target: PECPS N199L (Aquilaria sinensis, UniProt A0A385MEG6, N199L); assay: ITC binding to PECPS N199L mutant
Chain of PECPS N199L (A0A385MEG6 entry or part of it N199L): as the sequence (A0A385MEG6 entry or part of it) above, with N199L counted along it
Description: as §1, §2

[12] = molecular target: PECPS N199F (Aquilaria sinensis, UniProt A0A385MEG6, N199F); assay: ITC binding to PECPS N199F mutant
Chain of PECPS N199F (A0A385MEG6 entry or part of it N199F): as the sequence (A0A385MEG6 entry or part of it) above, with N199F counted along it
Description: as §1, with “Representative ITC thermograms and isotherm plots for experiments can be found in Supplementary Fig. 35.” left out

Molecule: O=C(CCc1ccccc1)CC(=O)c1ccccc1 [1,5-diphenylpentane-1,3-dione]
biotransformation in wild type N. benthamiana leaves [2]: converted to PECs

Molecule: [Cl-].[Na+] [NaCl]
Relative expression level of PECPS protein (PECPS/GAPDH), Mean ([4]; 0 h): 0.2667
Relative expression level of PECPS protein (PECPS/GAPDH), Mean ([4]; 24 h): 0.4551
Relative expression level of PECPS protein (PECPS/GAPDH), Mean ([4]; 48 h): 1.257
Relative expression level of PECPS protein (PECPS/GAPDH), Mean ([4]; 72 h): 1.846
Relative expression level of PECPS protein (PECPS/GAPDH), Mean ([4]; 96 h): 1.18
Relative expression level of PECPS (qRT-PCR), Mean ([5]; 0 h): 0.3162
Relative expression level of PECPS (qRT-PCR), Mean ([5]; 24 h): 0.7432
Relative expression level of PECPS (qRT-PCR), Mean ([5]; 48 h): 2.33
Relative expression level of PECPS (qRT-PCR), Mean ([5]; 72 h): 6.264
Relative expression level of PECPS (qRT-PCR), Mean ([5]; 96 h): 1.556

Molecule: O=C(CCc1ccc(O)cc1)CC(=O)c1ccccc1 [compound 2, 5-(4-hydroxyphenyl)-1-phenylpentane-1,3-dione]
accumulation of PECs (P1–P5) in substrate-fed cells [8]: visibly increased
biotransformation in wild type N. benthamiana leaves [2]: converted to PECs

Molecule: CC(C)(COP(=O)(O)OP(=O)(O)OC[C@H]1O[C@@H](n2cnc3c(N)ncnc32)[C@H](O)[C@@H]1OP(=O)(O)O)[C@@H](O)C(=O)NCCC(=O)NCCSC(=O)CCc1ccc(O)cc1 [4-hydroxyphenylpropionyl-CoA]
-TΔS ([6]; ITC): -3.748 ± 0.464 kcal/mol
n (stoichiometry) ([6]; ITC): 1.10±0.12
ΔH ([6]; ITC): -2.968 ± 0.425 kcal/mol
ΔS ([6]; ITC): 50.56 ± 6.28 J/molꞏK
Ka ([6]; ITC, listed as 4-hydorxyphenylpropionyl-CoA): 54.06 ± 4.14 mM⁻¹
Kd ([6]; Supplementary Table 4, ITC): 18.6 ± 1.37 µM
Kd [9]: 40.1 ± 4.52 µM
binding affinity, times lower than that of the wild-type ([9]; A210E vs wild type PECPS, ITC): 2.1 times
-TΔS ([9]; ITC, mean ± SD (n = 3)): -2.483 ± 0.397 kcal/mol
Ka ([9]; ITC, mean ± SD (n = 3)): 25.12 ± 2.98 mM⁻¹
n (stoichiometry) ([9]; ITC, mean ± SD (n = 3)): 0.99±0.02
ΔG ([9]; ITC, mean ± SD (n = 3)): -6.243 ± 0.0717 kcal/mol
ΔH ([9]; ITC, mean ± SD (n = 3)): -3.76 ± 0.323 kcal/mol
ΔS ([9]; ITC, mean ± SD (n = 3)): 33.49 ± 5.34 J/molꞏK
Kd [10]: 12.4 ± 2.07 µM
-TΔS ([10]; ITC, mean ± SD (n = 3)): -5.251 ± 0.28 kcal/mol
Ka ([10]; ITC, mean ± SD (n = 3)): 82.07 ± 12.96 mM⁻¹
n (stoichiometry) ([10]; ITC, mean ± SD (n = 3)): 0.91±0.06
ΔG ([10]; ITC, mean ± SD (n = 3)): -6.969 ± 0.1 kcal/mol
ΔH ([10]; ITC, mean ± SD (n = 3)): -1.72 ± 0.177 kcal/mol
ΔS ([10]; ITC, mean ± SD (n = 3)): 70.83 ± 3.75 J/molꞏK
Kd [11]: 120 ± 10.8 µM
Ka ([11]; ITC, mean ± SD (n = 3)): 8.35 ± 0.71 mM⁻¹
n (stoichiometry) ([11]; ITC, mean ± SD (n = 3)): 0.87±0.06
ΔG ([11]; ITC, mean ± SD (n = 3)): -5.564 ± 0.055 kcal/mol
ΔH ([11]; ITC, mean ± SD (n = 3)): -4.708 ± 0.402 kcal/mol
ΔS ([11]; ITC, mean ± SD (n = 3)): 11.50 ± 4.86 J/molꞏK
binding affinity, times weaker than that of wild type PECPS ([11]; N199L vs wild type PECPS, ITC): 6.5 times
Kd [12]: ~1000 µM

The next lines start with the values.

acceptance as starter by PECPS to produce the C6–C5–C6 scaffold [1]: could accept
Molecule: CC(C)(COP(=O)(O)OP(=O)(O)OC[C@H]1O[C@@H](n2cnc3c(N)ncnc32)[C@H](O)[C@@H]1OP(=O)(O)O)[C@@H](O)C(=O)NCCC(=O)NCCSC(=O)c1ccc(O)cc1 [4-hydroxybenzoyl-CoA]

stoichiometry N [3]: 2
Molecule: 2-(2-phenylethyl)chromone precursor synthase (PECPS), wild type, recombinant (enzyme)

Kd ([6]; ITC, 100 mM KPB pH 7.5, 37 °C): ~1000 µM
Molecule: CC(C)(COP(=O)(O)OP(=O)(O)OC[C@H]1O[C@@H](n2cnc3c(N)ncnc32)[C@H](O)[C@@H]1OP(=O)(O)O)[C@@H](O)C(=O)NCCC(=O)NCCSC(=O)c1ccccc1 [benzoyl-CoA]

products from the opening of the epoxy ring (non-enzymatic conversion to ATC-type PECs) [7]: readily detected
Molecule: oxidoagarochromone C

acceptance as starter by PECPS to produce the C6–C5–C6 scaffold [1]: could accept
Molecule: CC(C)(COP(=O)(O)OP(=O)(O)OC[C@H]1O[C@@H](n2cnc3c(N)ncnc32)[C@H](O)[C@@H]1OP(=O)(O)O)[C@@H](O)C(=O)NCCC(=O)NCCSC(=O)c1cccc(O)c1 [3-hydroxybenzoyl-CoA]

acceptance as starter by PECPS to produce the C6–C5–C6 scaffold [1]: not accepted
Molecule: CC(C)(COP(=O)(O)OP(=O)(O)OC[C@H]1O[C@@H](n2cnc3c(N)ncnc32)[C@H](O)[C@@H]1OP(=O)(O)O)[C@@H](O)C(=O)NCCC(=O)NCCSC(=O)c1ccccc1O [2-hydroxybenzoyl-CoA]

From publication PMC8764113 (Nature Communications, 2022)
